Test results published in publication PMC3089805 (Chemmedchem, 2010).
In brackets after ≈: the same amount, converted by molar mass. Like-named read-outs stand apart in the source and are kept apart here. Marks after values point to notes of the source that are not given here.

Assays:
[1] = tested on: H. pylori PFOR enzyme; assay: Direct PFOR enzyme assay; assay type: biochemical; conditions: [Drug] = 40 μM
[2] = tested on: H. pylori strain 26695; assay: MIC determination, liquid microdilution, H. pylori; assay type: cell-based; conditions: Helicobacter pylori, 26695, 27 h, read-out: MIC H. pylori
[3] = tested on: C. difficile VPI 10463; assay: MIC determination, agar dilution, C. difficile; assay type: cell-based, Clostridium difficile; conditions: Clostridioides difficile, VPI10463, 18 h, read-out: MIC C. difficile
[4] = tested on: C. jejuni strain H840; assay: MIC determination, liquid microdilution, C. jejuni; assay type: cell-based; conditions: Campylobacter jejuni, H840, 27 h, read-out: MIC C. jejuni
[5] = Human foreskin cell toxicity; assay type: cell-based; conditions: human
[6] = tested on: Human foreskin cells; assay: Human foreskin cell toxicity; assay type: cell-based
[7] = tested on: S. epidermidis; assay: MIC determination, liquid microdilution, S. epidermidis; assay type: cell-based; conditions: Staphylococcus epidermidis, read-out: MIC S. epidermidis
[8] = tested on: S. aureus (MRSA); assay: MIC determination, liquid microdilution, S. aureus; assay type: cell-based; conditions: Staphylococcus aureus, read-out: MIC S. aureus (MRSA)
[9] = tested on: E. coli; assay: MIC against E. coli; assay type: cell-based; conditions: Escherichia coli

| Structure (SMILES) | PFOR Inhibition [1] | MIC [2] | MIC [3] | MIC [4] | CC50 at 48 h ([5]; human foreskin cells) | toxicity to human foreskin cells (in words) [6] | MIC [7] | MIC [8] | CC50 at 48 h [5] | PFOR Inhibition ([1]; listed as 1, 40 µM) | PFOR Inhibition ([1]; listed as NTZ, 40 µM) | MIC ([9]; read-out: E. coli MIC) | MIC ([9]; read-out: E. coli MIC, stated in text) |
| --- | --- | --- | --- | --- | --- | --- | --- | --- | --- | --- | --- | --- | --- |
| O=C(Nc1ncc([N+](=O)[O-])s1)c1ccc(F)cc1 [Analogue 8, 4-Fluoro-N-(5-nitrothiazol-2-yl)benzamide] | 85 ^b % | 0.9 µM (≈ 0.241 µg/mL) | 3.3 µM (≈ 0.882 µg/mL) | 2.8 µM (≈ 0.748 µg/mL) | 29.9 µM | – | – | – | – | – | – | – | – |
| O=C(Nc1ncc([N+](=O)[O-])s1)c1cccc(C(F)(F)F)c1 [Analogue 23, N-(5-Nitrothiazol-2-yl)-3-(trifluoromethyl)benzamide] | 41.5 ± 5.5% | 3.5 µM (≈ 1.11 µg/mL) | 0.5 µM (≈ 0.159 µg/mL) | 4.7 µM (≈ 1.49 µg/mL) | > 50.4 µM | not toxic | 12.6 µM (≈ 4 µg/mL) | – | – | – | – | – | – |
| O=C(Nc1ncc([N+](=O)[O-])s1)c1cccc([N+](=O)[O-])c1 [Analogue 26, 3-Nitro-N-(5-nitrothiazol-2-yl)benzamide] | – | 1.3 µM (≈ 0.383 µg/mL) | – | 27.2 µM (≈ 8 µg/mL) | – | – | 10.2 µM (≈ 3 µg/mL) | 10.2 µM (≈ 3 µg/mL) | 27.2 µM | – | – | – | – |
| O=C(Nc1ncc([N+](=O)[O-])s1)c1cccc(OC(F)(F)F)c1 [Analogue 31, N-(5-Nitrothiazol-2-yl)-3-(trifluoromethoxy)benzamide] | – | 1.1 µM (≈ 0.367 µg/mL) | – | 9 µM (≈ 3 µg/mL) | > 48 µM | – | 12 µM (≈ 4 µg/mL) | 6 µM (≈ 2 µg/mL) | – | – | – | – | – |
| O=C(Nc1ncc([N+](=O)[O-])s1)c1cc(C(F)(F)F)cc(C(F)(F)F)c1 [Analogue 38, N-(5-Nitrothiazol-2-yl)-3,5-bis(trifluoromethyl)benzamide] | – | 5.2 µM (≈ 2 µg/mL) | – | 41.5 µM (≈ 16 µg/mL) | 10.4 µM | particularly toxic | 1.9 µM (≈ 0.732 µg/mL) | 2.6 µM (≈ 1 µg/mL) | – | – | – | – | – |
| O=C(Nc1ncc([N+](=O)[O-])s1)c1cccc(C(F)(F)F)c1Cl [Analogue 40, 2-Chloro-N-(5-nitrothiazol-2-yl)-3-(trifluoromethyl)benzamide] | – | 0.9 µM (≈ 0.317 µg/mL) | – | – | > 45.5 µM | – | 11.4 µM (≈ 4.01 µg/mL) | 11.4 µM (≈ 4.01 µg/mL) | – | – | – | – | – |
| O=C(Nc1ncc([N+](=O)[O-])s1)c1ccc(Cl)c(C(F)(F)F)c1 [Analogue 41, 4-Chloro-N-(5-nitrothiazol-2-yl)-3-(trifluoromethyl)benzamide] | 33 ± 1% | 2.8 µM (≈ 0.985 µg/mL) | 1.4 µM (≈ 0.492 µg/mL) | 2.8 µM (≈ 0.985 µg/mL) | > 45.5 µM | – | 2.8 µM (≈ 0.985 µg/mL) | 2.8 µM (≈ 0.985 µg/mL) | – | – | – | – | – |
| CC(=O)Nc1ncc([N+](=O)[O-])s1 [Analogue 48, N-(5-Nitrothiazol-2-yl)acetamide] | – | 0.7 µM (≈ 0.131 µg/mL) | – | 10.7 µM (≈ 2 µg/mL) | > 85.5 µM | – | 21.4 µM (≈ 4.01 µg/mL) | 171 µM (≈ 32 µg/mL) | – | – | – | – | – |
| CCCCCC(=O)Nc1ncc([N+](=O)[O-])s1 [Analogue 50, N-(5-Nitrothiazol-2-yl)hexanamide] | 64 ± 6 ^b % | 0.5 µM (≈ 0.122 µg/mL) | 8.2 µM (≈ 1.99 µg/mL) | 2.1 µM (≈ 0.511 µg/mL) | > 65.8 µM | – | – | 132 µM (≈ 32 µg/mL) | – | – | – | – | – |
| O=C(Nc1ncc([N+](=O)[O-])s1)c1cccnc1F [Analogue 59, 2-Fluoro-N-(5-nitrothiazol-2-yl)nicotinamide] | 61 ± 13% | – | 2.8 µM (≈ 0.751 µg/mL) | – | > 59.7 µM | – | 119 µM (≈ 32 µg/mL) | 119 µM (≈ 32 µg/mL) | – | – | – | – | – |
| O=C(Nc1ncc([N+](=O)[O-])s1)c1ccoc1 [Analogue 60, N-(5-Nitrothiazol-2-yl)furan-3-carboxamide] | 58 ± 2 ^b % | – | 1.7 µM (≈ 0.407 µg/mL) | – | > 66.9 µM | – | 33.4 µM (≈ 7.99 µg/mL) | – | – | – | – | – | – |
| O=C(Nc1ncc([N+](=O)[O-])s1)c1ccco1 [Analogue 61, N-(5-Nitrothiazol-2-yl)furan-2-carboxamide] | 42 ^b % | 1 µM (≈ 0.239 µg/mL) | 2.4 µM (≈ 0.574 µg/mL) | 8.4 µM (≈ 2.01 µg/mL) | 66.9 µM | – | 66.9 µM (≈ 16 µg/mL) | 50.2 µM (≈ 12 µg/mL) | – | – | – | – | – |
| O=C(Nc1ncc([N+](=O)[O-])s1)c1ccc([N+](=O)[O-])o1 [Analogue 64, 5-Nitro-N-(5-nitrothiazol-2-yl)furan-2-carboxamide] | – | 21.1 µM (≈ 6 µg/mL) | – | 7 µM (≈ 1.99 µg/mL) | > 56.3 µM | – | 28.1 µM (≈ 7.99 µg/mL) | 113 µM (≈ 32 µg/mL) | – | – | – | – | – |
| O=C(Nc1ncc([N+](=O)[O-])s1)c1ccc(-c2cccc(C(F)(F)F)c2)o1 [Analogue 68, N-(5-Nitrothiazol-2-yl)-5-(3-(trifluoromethyl)phenyl)furan-2-carboxamide] | – | 1.1 µM (≈ 0.422 µg/mL) | – | 8.5 µM (≈ 3.26 µg/mL) | > 41.7 µM | – | 5.7 µM (≈ 2.18 µg/mL) | 11.4 µM (≈ 4.37 µg/mL) | – | – | – | – | – |
| O=C(Nc1ncc([N+](=O)[O-])s1)c1ccsc1 [Analogue 74, N-(5-Nitrothiazol-2-yl)thiophene-3-carboxamide] | 58.5 ± 3.5 ^b % | 0.7 µM (≈ 0.179 µg/mL) | 2.9 µM (≈ 0.74 µg/mL) | 5.9 µM (≈ 1.51 µg/mL) | > 62.7 µM | – | 15.7 µM (≈ 4.01 µg/mL) | 23.5 µM (≈ 6 µg/mL) | – | – | – | – | – |
| O=C(Nc1ncc([N+](=O)[O-])s1)c1cccs1 [Analogue 76, N-(5-Nitrothiazol-2-yl)thiophene-2-carboxamide] | 56 ± 6 ^b % | – | 1.5 µM (≈ 0.383 µg/mL) | – | > 62.7 µM | – | 31.3 µM (≈ 7.99 µg/mL) | – | – | – | – | – | – |
| O=C(Nc1ncc([N+](=O)[O-])s1)c1cc2ccccc2s1 [Analogue 84, N-(5-Nitrothiazol-2-yl)benzo[b]thiophene-2-carboxamide] | – | 2.5 µM (≈ 0.763 µg/mL) | – | 9.8 µM (≈ 2.99 µg/mL) | > 52.6 µM | – | 13.1 µM (≈ 4 µg/mL) | 6.6 µM (≈ 2.02 µg/mL) | – | – | – | – | – |
| O=C(Nc1ncc([N+](=O)[O-])s1)c1sc2ccccc2c1Cl [Analogue 85, 3-Chloro-N-(5-nitrothiazol-2-yl)benzo[b]thiophene-2-carboxamide] | – | – | – | – | > 47.1 µM | – | – | – | – | – | – | – | – |
| O=C(Nc1ncc([N+](=O)[O-])s1)c1sc2cc(F)ccc2c1Cl [Analogue 86, 3-Chloro-6-fluoro-N-(5-nitrothiazol-2-yl)benzo[b]thiophene-2-carboxamide] | – | 1 µM (≈ 0.358 µg/mL) | – | 5.6 µM (≈ 2 µg/mL) | 33.5 µM | – | 5.6 µM (≈ 2 µg/mL) | 2.1 µM (≈ 0.751 µg/mL) | – | – | – | – | – |
| CC(=O)Oc1ccccc1C(=O)Nc1ncc([N+](=O)[O-])s1 [Nitazoxanide, reference compound] | – | 13 µM (≈ 3.99 µg/mL) | 1.2 µM (≈ 0.369 µg/mL) | 39.1 µM (≈ 12 µg/mL) | > 52.1 µM | – | 52.1 µM (≈ 16 µg/mL) | 39.1 µM (≈ 12 µg/mL) | – | 54 ± 7% | [c] For PFOR inhibition assays, drug concentration was fixed at 40 μM which bench marks NTZ at ~50% inhibition. | > 104 µM | > 32 µg/mL |
